The values below come from patent US10160747B2, “Compounds and methods for kinase modulation, and indications therefor” (Plexxikon Inc., priority 2016, dated 2018).

The term GI50 denotes the concentration at which growth is held to half of that of the control. As a reminder, the IC50 is the concentration needed to halve the response being measured. High values mean a need for much substance, low ones inhibition by little substance.

One test has as its target T1, BA/F3-FLT3-ITD + D835Y (Homo sapiens, UniProt P36888, D835Y, cells depend on it, form not given).
T1 sequence (P36888 with tags, fused parts or gaps INS600HVDFREYEYD/D835Y): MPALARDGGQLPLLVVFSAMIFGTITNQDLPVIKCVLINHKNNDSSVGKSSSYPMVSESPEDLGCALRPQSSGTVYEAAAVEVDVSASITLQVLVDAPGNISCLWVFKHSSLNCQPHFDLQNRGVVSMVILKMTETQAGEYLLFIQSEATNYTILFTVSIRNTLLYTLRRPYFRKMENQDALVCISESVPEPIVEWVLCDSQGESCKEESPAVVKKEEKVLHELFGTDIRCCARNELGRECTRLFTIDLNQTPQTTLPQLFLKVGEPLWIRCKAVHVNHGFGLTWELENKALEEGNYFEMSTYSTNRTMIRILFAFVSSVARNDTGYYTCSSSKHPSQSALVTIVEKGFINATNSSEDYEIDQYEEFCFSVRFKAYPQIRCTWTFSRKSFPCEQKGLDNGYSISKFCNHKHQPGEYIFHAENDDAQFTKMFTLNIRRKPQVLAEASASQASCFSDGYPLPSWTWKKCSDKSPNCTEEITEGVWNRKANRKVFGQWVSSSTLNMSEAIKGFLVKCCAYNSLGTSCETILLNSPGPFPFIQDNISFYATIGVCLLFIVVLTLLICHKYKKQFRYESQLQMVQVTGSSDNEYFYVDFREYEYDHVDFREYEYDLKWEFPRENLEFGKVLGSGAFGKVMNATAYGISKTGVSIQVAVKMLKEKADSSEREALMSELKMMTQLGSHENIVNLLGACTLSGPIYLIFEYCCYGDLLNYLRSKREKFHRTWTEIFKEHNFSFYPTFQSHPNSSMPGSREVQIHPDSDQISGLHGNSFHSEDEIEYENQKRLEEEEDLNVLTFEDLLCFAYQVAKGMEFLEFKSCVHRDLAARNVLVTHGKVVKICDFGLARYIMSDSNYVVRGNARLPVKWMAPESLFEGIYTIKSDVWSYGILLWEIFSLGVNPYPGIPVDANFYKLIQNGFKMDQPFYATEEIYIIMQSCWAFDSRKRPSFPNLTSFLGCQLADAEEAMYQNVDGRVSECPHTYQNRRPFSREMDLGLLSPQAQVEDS
The test is described as follows: Engineered BA/F3 cell growth assay, FLT3 ITD/D835Y. Format: cell-based, murine. The note with it: 3 d growth. A digest of the protocol: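 Murine Ba/F3 cells transfected with full-length FLT3 ITD/D835Y, grown without IL-3 so growth depends on FLT3. Seeded at 1×10^4 cells/well, 8-point 1:3 series to 1 μM top (0.2% DMSO), 3 days at 37 °C. CellTiter-Glo luminescence (ATP) versus concentration gave IC50.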

In test [1] the test system is MOLM-14 D835Y (endogenous FLT3 ITD and transfected FLT3 D835Y). The test can be described thus: MOLM-14 D835Y cell proliferation assay (CellTiter-Glo). Format: cell-based. The note with it: Homo sapiens, MOLM-14, 72 h; 3 d growth, GMean. A digest of the protocol: (§1)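 Three-day proliferation at 37 °C/5% CO2 of FLT3-ITD MOLM-14 lines with D835Y or F691L mutation, seeded 1×10^4 per well. Compounds at eight points, top 1 μM final, 0.2% DMSO. ATP luminescence (CellTiter-Glo) gives IC50.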
(In general: ATP-based viability assays read luminescence as a measure of living cells.)

Test [2] relates to MOLM-14 F691L (endogenous FLT3 ITD and transfected FLT3 F691L). The test is described as follows: MOLM-14 F691L cell proliferation assay (CellTiter-Glo). In kind it is cell-based. The note with it: Homo sapiens, MOLM-14, 72 h; 3 d growth, GMean. A digest of the protocol:
as §1

`COc1ncc(NC(=O)Cc2cc(F)c(-c3cnc4[nH]cc(F)c4c3)cc2F)cc1C(F)(F)F` [Compound P-0051, 2-[2,5-difluoro-4-(3-fluoro-1H-pyrrolo[2,3-b]pyridin-5-yl)phenyl]-N-[6-methoxy-5-(trifluoromethyl)-3-pyridyl]acetamide]: the GI50 at BA/F3-FLT3-ITD + D835Y lay within 0.0001 to 10 µM.

For the compound `O=C(Cc1ccc(-c2cnc3[nH]cc(F)c3c2)cc1F)Nc1ccnc(C(F)(F)F)c1` [Compound P-0029, 2-[2-fluoro-4-(3-fluoro-1H-pyrrolo[2,3-b]pyridin-5-yl)phenyl]-N-[2-(trifluoromethyl)-4-pyridyl]acetamide], on BA/F3-FLT3-ITD + D835Y, the concentration for 50% growth inhibition (GI50) lay within 0.0001 to 10 µM.

For `O=C(Cc1cc(F)c(-c2cnc(Nc3cnn4ccccc34)nc2)cc1F)Nc1cncc(C(F)(F)F)c1` [Compound P-0075, 2-[2,5-difluoro-4-[2-(pyrazolo[1,5-a]pyridin-3-ylamino)pyrimidin-5-yl]phenyl]-N-[5-(trifluoromethyl)-3-pyridyl]acetamide], the IC50 in test [1] was in the range of 0.0001 to 10 µM. Also, the GI50 at BA/F3-FLT3-ITD + D835Y lay within 0.0001 to 10 µM.

In the case of `O=C(Cc1ccc(-c2cnc3[nH]nc(C4CC4)c3c2)cc1F)Nc1cncc(C(F)(F)F)c1` [Compound P-0072, 2-[4-(3-cyclopropyl-1H-pyrazolo[3,4-b]pyridin-5-yl)-2-fluoro-phenyl]-N-[5-(trifluoromethyl)-3-pyridyl]acetamide], the IC50 in test [2] and in test [1] was 0.0001 to 10 µM each time. For the same compound, the 50% growth inhibitory concentration (GI50) at BA/F3-FLT3-ITD + D835Y was in the range of 0.0001 to 10 µM.

Take `COc1ncc(NC(=O)Cc2ccc(-c3cnc4[nH]cc(C(=O)C5CC5)c4c3)cc2F)cc1C(F)(F)F` [Compound P-0036, 2-[4-[3-(cyclopropanecarbonyl)-1H-pyrrolo[2,3-b]pyridin-5-yl]-2-fluoro-phenyl]-N-[6-methoxy-5-(trifluoromethyl)-3-pyridyl]acetamide]: the IC50 in test [1] was in the range of 0.0001 to 10 µM. For the same compound, on BA/F3-FLT3-ITD + D835Y, the 50% growth inhibitory concentration (GI50) lay within 0.0001 to 10 µM.

For `COc1cncc(NC(=O)Cc2ccc(-c3cnc(Nc4cnn(C)c4)nc3)cc2F)c1` [Compound P-0086, 2-[2-fluoro-4-[2-[(1-methylpyrazol-4-yl)amino]pyrimidin-5-yl]phenyl]-N-(5-methoxy-3-pyridyl)acetamide], the IC50 in test [2] and in test [1] was 0.0001 to 10 µM in each case. The 50% growth inhibitory concentration (GI50) on BA/F3-FLT3-ITD + D835Y was in the range of 0.0001 to 10 µM.

As for `Cc1cc(CC(=O)Nc2cccc(C(F)(F)F)c2)ccc1-c1cnc2[nH]c(-c3ccccc3)cc2c1` [Compound P-0002, 2-[3-methyl-4-(2-phenyl-1H-pyrrolo[2,3-b]pyridin-5-yl)phenyl]-N-[3-(trifluoromethyl)phenyl]acetamide], the concentration for 50% growth inhibition (GI50) on BA/F3-FLT3-ITD + D835Y was 0.0001 to 10 µM.

In the case of `COc1ncc(NC(=O)Cc2ccc(-c3cnc(Nc4cnn5ccccc45)nc3)cc2F)cc1C(F)(F)F` [Compound P-0037, 2-[2-fluoro-4-[2-(pyrazolo[1,5-a]pyridin-3-ylamino)pyrimidin-5-yl]phenyl]-N-[6-methoxy-5-(trifluoromethyl)-3-pyridyl]acetamide], the half-maximal inhibitory concentration (IC50) in test [2] and in test [1] was 0.0001 to 10 µM throughout. For the same compound, on BA/F3-FLT3-ITD + D835Y, the concentration for 50% growth inhibition (GI50) is 0.0001 to 10 µM.

Regarding `Cn1cc(Nc2ncc(-c3ccc(CC(=O)NCc4ccccn4)c(F)c3)cn2)cn1` [Compound P-0088, 2-[2-fluoro-4-[2-[(1-methylpyrazol-4-yl)amino]pyrimidin-5-yl]phenyl]-N-(2-pyridylmethyl)acetamide], the half-inhibitory concentration (IC50) in test [2] and in test [1] was 0.0001 to 10 µM throughout. Moreover, the GI50 on BA/F3-FLT3-ITD + D835Y lay within 0.0001 to 10 µM.

Consider `Cn1cc(Nc2ncc(-c3ccc(CC(=O)Nc4cncc(C(F)(F)F)c4)c(F)c3)cn2)cn1` [Compound P-0084, 2-[2-fluoro-4-[2-[(1-methylpyrazol-4-yl)amino]pyrimidin-5-yl]phenyl]-N-[5-(trifluoromethyl)-3-pyridyl]acetamide], for which the half-maximal inhibitory concentration (IC50) in test [2] and in test [1] was 0.0001 to 10 µM each time. The 50% growth inhibitory concentration (GI50) at BA/F3-FLT3-ITD + D835Y lay in the range of 0.0001 to 10 µM.

As for `Cn1cc(Nc2ncc(-c3ccc(CC(=O)Nc4cncc(C5CC5)c4)c(F)c3)cn2)cn1` [Compound P-0081, N-(5-cyclopropyl-3-pyridyl)-2-[2-fluoro-4-[2-[(1-methylpyrazol-4-yl)amino]pyrimidin-5-yl]phenyl]acetamide], the concentration for half-maximal inhibition (IC50) in test [2] and in test [1] was 0.0001 to 10 µM throughout. In addition, the GI50 at BA/F3-FLT3-ITD + D835Y was 0.0001 to 10 µM.

On to `Cn1cc(Nc2ncc(-c3ccc(CC(=O)NCc4ccc(C(F)(F)F)nc4)c(F)c3)cn2)cn1` [Compound P-0087, 2-[2-fluoro-4-[2-[(1-methylpyrazol-4-yl)amino]pyrimidin-5-yl]phenyl]-N-[[6-(trifluoromethyl)-3-pyridyl]methyl]acetamide], for which the half-maximal inhibitory concentration (IC50) in test [2] and in test [1] was 0.0001 to 10 µM each time. In addition, on BA/F3-FLT3-ITD + D835Y, the 50% growth inhibitory concentration (GI50) lay in the range of 0.0001 to 10 µM.

As to `COc1ncc(NC(=O)Cc2ccc(-c3cnc4[nH]c(Cl)cc4c3)c(F)c2)cc1C(F)(F)F` [Compound P-0046, 2-[4-(2-chloro-1H-pyrrolo[2,3-b]pyridin-5-yl)-3-fluoro-phenyl]-N-[6-methoxy-5-(trifluoromethyl)-3-pyridyl]acetamide], the concentration for 50% growth inhibition (GI50) on BA/F3-FLT3-ITD + D835Y was 0.0001 to 10 µM.

For the compound `Cn1cnc(Nc2ncc(-c3ccc(CC(=O)Nc4cc(C(C)(F)F)ccn4)cc3F)cn2)c1` [Compound P-0171, N-[4-(1,1-difluoroethyl)-2-pyridyl]-2-[3-fluoro-4-[2-[(1-methylimidazol-4-yl)amino]pyrimidin-5-yl]phenyl]acetamide], the GI50 on BA/F3-FLT3-ITD + D835Y was 0.0001 to 10 µM.

For the compound `Cn1cc(Nc2ncc(-c3ccc(CC(=O)NCc4ccc(C(F)(F)F)cn4)cc3)cn2)cn1` [Compound P-0162, 2-[4-[2-[(1-methylpyrazol-4-yl)amino]pyrimidin-5-yl]phenyl]-N-[[5-(trifluoromethyl)-2-pyridyl]methyl]acetamide], the IC50 in test [2] was in the range of 0.0001 to 10 µM. For the same compound, the GI50 on BA/F3-FLT3-ITD + D835Y lay in the range of 0.0001 to 10 µM.

`CC(=O)c1c[nH]c2ncc(-c3ccc(CC(=O)Nc4ccnc(C(F)(F)F)c4)c(F)c3)cc12` [Compound P-0031, 2-(4-(3-acetyl-1H-pyrrolo[2,3-b]pyridin-5-yl)-2-fluorophenyl)-N-(2-(trifluoromethyl)pyridin-4-yl)acetamide] had a concentration for half-maximal inhibition (IC50) in test [1] of 0.0001 to 10 µM. For the same compound, the 50% growth inhibitory concentration (GI50) on BA/F3-FLT3-ITD + D835Y lay in the range of 0.0001 to 10 µM.

Regarding `COc1ncc(NC(=O)Cc2cc(F)c(-c3cnc4[nH]c(Cl)cc4c3)cc2F)cc1C(F)(F)F` [Compound P-0045, 2-[4-(2-chloro-1H-pyrrolo[2,3-b]pyridin-5-yl)-2,5-difluoro-phenyl]-N-[6-methoxy-5-(trifluoromethyl)-3-pyridyl]acetamide], on BA/F3-FLT3-ITD + D835Y, the GI50 lay within 0.0001 to 10 µM.

For `O=C(Cc1ccc(-c2cnc3c(c2)C2(CC2)C(=O)N3)cc1F)Nc1cncc(C(F)(F)F)c1` [Compound P-0064, 2-(2-fluoro-4-(2′-oxo-1′,2′-dihydrospiro[cyclopropane-1,3′-pyrrolo[2,3-b]pyridin]-5′-yl)phenyl)-N-(5-(trifluoromethyl)pyridin-3-yl)acetamide], in test [1], the IC50 lay in the range of 0.0001 to 10 µM. Further, the GI50 on BA/F3-FLT3-ITD + D835Y fell in the range of 0.0001 to 10 µM.

In test [2], `O=C(Cc1ccc(-c2cnc3[nH]c(Cl)cc3c2)cc1F)Nc1ccnc(C(F)(F)F)c1` [Compound P-0030, 2-[4-(2-chloro-1H-pyrrolo[2,3-b]pyridin-5-yl)-2-fluoro-phenyl]-N-[2-(trifluoromethyl)-4-pyridyl]acetamide] gave an IC50 of 0.0001 to 10 µM. Moreover, the concentration for 50% growth inhibition (GI50) on BA/F3-FLT3-ITD + D835Y lay in the range of 0.0001 to 10 µM.

For `COc1ncc(NC(=O)Cc2ccc(-c3cnc4[nH]cc(F)c4c3)c(F)c2)cc1C(F)(F)F` [Compound P-0048, 2-[3-fluoro-4-(3-fluoro-1H-pyrrolo[2,3-b]pyridin-5-yl)phenyl]-N-[6-methoxy-5-(trifluoromethyl)-3-pyridyl]acetamide], the 50% growth inhibitory concentration (GI50) at BA/F3-FLT3-ITD + D835Y was 0.0001 to 10 µM.
